“And” between values parts separate entries of the source, which are not always exact repeats. Equal values may be shown once.

Eleven molecules from ChEMBL document CHEMBL5661943, “ASAP - In vitro antiviral effect” (2024) can be followed below.

The test system of assay [1] is Zika virus. Description: EC50 is reported via analysis of immunofluorescence staining. The assay has been performed by Icahn School of Medicine at Mount Sinai. The following applies: for EC90: P-gp concentration 2 uM, P-gp inhibitor Elacidar. The assay is classed as functional, organism-based, Chlorocebus sabaeus, VeroE6/TMPRSS2.
In assay [2] the test system is Zika virus. The assay is described as follows: Functional CPE-based assay to measure dose dependent changes in antiviral-drug inhibitory efficacy against Zika virus MR766 in Vero E6 miRFP670 cells (cotreated with P-gp inhibitor, CP100356). Cells are treated with antiviral candidates that are serially diluted. EC50 is reported via analysis of MTS assay as a readout of CPE. The assay has been performed by KU Leuven. The assay is classed as organism-based, Chlorocebus sabaeus, Vero C1008. The note with it: for EC90: Baseline response 0 %, Maximum response 100 %, P-gp concentration 500 nM, P-gp inhibitor CP100356. For orientation: Tetrazolium dyes change colour on reduction, which living cells bring about.

For assay [3], the system named is dengue virus type 2. Description: Functional assay to measure dose dependent changes in antiviral-drug inhibitory efficacy against Dengue virus type 2 New Guinea C in Vero E6 miRFP670 cells (cotreated with P-gp inhibitor, CP100356). Cells are treated with antiviral candidates that are serially diluted, following infection, cells are fixed. EC50 is reported via analysis of fluorescence intensity using high-content imager. The …. It is filed as organism-based, Chlorocebus sabaeus, Vero C1008. The following applies: for EC90: P-gp concentration 500 nM, P-gp inhibitor CP100356.

Assay [4] relates to dengue virus type 2. The assay is described as follows: Functional immunofluorescence assay to measure dose dependent changes in antiviral-drug inhibitory efficacy against Dengue virus type 2 Thailand/16681/84 in Vero E6/TMPRSS2 cells (cotreated with P-gp inhibitor, Elacridar). Cells are treated with antiviral candidates that are serially diluted, following infection, cells are fixed. EC50 is reported via analysis of immunofluorescence staining. The assay has been performed by Icahn School of Medicine at Mount Sinai. The assay is classed as organism-based, Chlorocebus sabaeus, VeroE6/TMPRSS2. The note with it: for EC90: P-gp concentration 2 uM, P-gp inhibitor Elacidar.

A word on the EC90: it is the point of the concentration-response curve where the effect stands at 90%. What is called EC50 is the concentration needed to bring the measured effect to its halfway point. On to `COCCNC(=O)[C@H](Nc1ccc2c(c1)CNC2)c1cc(Cl)cc(C2CC2)c1`, for which the EC90 with Zika virus [1] (Baseline response 0 %, Hill slope -0.71, Maximum measured 110.043 %, Maximum response 100 %, Minimum measured 53.247 %, R squared 0.662) was over 5.56 µM; in the assay with Zika virus [1] (Zika virus, VeroE6/TMPRSS2, Baseline response 0 %, Hill slope -0.244, Maximum measured 65.627 %, Maximum response 50 %, Minimum measured 21.531 %, R squared 0.09), over 5.56 µM; in the assay on Zika virus [2] (EC90 CI (lower) 3.438 uM, EC90 CI (upper) 13.705 uM, Hill slope 5.727, Maximum measured 103.141 %, Minimum measured 2.231 %, R squared 0.527), 6.86 µM; in the assay on Zika virus [2] (Hill slope 2.264, Maximum measured 83.807 %, Minimum measured -2.671 %, R squared 0.978), over 50 µM; in the assay with dengue virus type 2 [3] (Dengue virus, Vero C1008, Maximum measured 154.141 %, Minimum measured 87.25 %) it was over 50 µM; in the assay with dengue virus type 2 [3] (Dengue virus, Vero C1008, Baseline response 0 %, Hill slope -1.76, Maximum measured 106.994 %, Maximum response 100 %, Minimum measured 48.696 %, R squared 0.783) it was over 50 µM. Further, the EC50 in the assay with Zika virus [1] (Zika virus, VeroE6/TMPRSS2) was over 5.56 µM; in the assay with Zika virus [2] (vero c1008), 26 µM and 4.68 µM; with dengue virus type 2 [3] (Dengue virus, Vero C1008) it was 40.2 µM; with dengue virus type 2 [3] (vero c1008), over 50 µM.

`Nc1cc(Cl)cc(C(=O)Nc2ccc3c(c2)CNC3)c1N`: the EC50 with dengue virus type 2 [4] (Dengue virus, VeroE6/TMPRSS2) was 41.9 µM; in the assay on Zika virus [2] (Zika virus, Vero C1008), over 50 µM; in the assay with dengue virus type 2 [3] (Dengue virus, Vero C1008), over 50 µM. Also, the 90% effect concentration (EC90) in the assay with dengue virus type 2 [4] (Dengue virus, VeroE6/TMPRSS2, Baseline response 0 %, Hill slope -3.096, Maximum measured 144.717 %, Maximum response 100 %, Minimum measured 36.673 %, R squared 0.131) was over 50 µM; in the assay with Zika virus [2] (Zika virus, Vero C1008, Hill slope 0.699, Maximum measured 36.917 %, Minimum measured 3.264 %, R squared 0.811), over 50 µM; in the assay on dengue virus type 2 [3] (Dengue virus, Vero C1008, Baseline response 0 %, Hill slope 0.309, Maximum measured 103.631 %, Maximum response 100 %, Minimum measured 71.641 %, R squared 0.1), over 50 µM.

For the molecule `O=C(Nc1ccc2c(c1)CNC2)c1cc(Br)cc2[nH]c([C@H]3CCOC3)nc12`, the EC50 was over 5.56 µM in the assay with Zika virus [1] (Zika virus, VeroE6/TMPRSS2); 0.918 µM in the assay with Zika virus [2] (Zika virus, Vero C1008); over 3.12 µM in the assay with dengue virus type 2 [3] (Dengue virus, Vero C1008). For the same molecule, the EC90 is over 5.56 µM in the assay on Zika virus [1] (Zika virus, VeroE6/TMPRSS2, Maximum measured 90.854 %, Minimum measured 45.403 %); over 1.56 µM with Zika virus [2] (Zika virus, Vero C1008, Hill slope 2.359, Maximum measured 80.04 %, Minimum measured 15.463 %, R squared 0.714); over 3.12 µM with dengue virus type 2 [3] (Dengue virus, Vero C1008, Baseline response 0 %, Hill slope -2.03, Maximum measured 96.655 %, Maximum response 100 %, Minimum measured 50.768 %, R squared 0.853).

For the molecule `N#C[C@H](Nc1ccc2c(c1)CNC2)c1cc(Cl)cc(C2CC2)c1`, the EC50 in the assay with dengue virus type 2 [4] (Dengue virus, VeroE6/TMPRSS2) was over 16.7 µM; in the assay with Zika virus [2] (Zika virus, Vero C1008) it was 19.3 µM; in the assay with dengue virus type 2 [3] (Dengue virus, Vero C1008), 45.6 µM. Moreover, the 90% effect concentration (EC90) in the assay with dengue virus type 2 [4] (Dengue virus, VeroE6/TMPRSS2, Maximum measured 136.887 %, Minimum measured 85.602 %) is over 16.7 µM; in the assay on Zika virus [2] (Zika virus, Vero C1008, Hill slope 4.333, Maximum measured 75.439 %, Minimum measured -2.703 %, R squared 0.979), over 25 µM; in the assay with dengue virus type 2 [3] (Dengue virus, Vero C1008, Baseline response 0 %, Hill slope -4.312, Maximum measured 125.602 %, Maximum response 100 %, Minimum measured 40.399 %, R squared 0.668), over 50 µM.

Consider `CCc1cc(Cl)cc(C(=O)Nc2ccc3c(c2)CNC3)c1`, for which the EC50 in the assay with dengue virus type 2 [4] (Dengue virus, VeroE6/TMPRSS2) is over 16.7 µM. Further, the EC90 in the assay with dengue virus type 2 [4] (Dengue virus, VeroE6/TMPRSS2, Baseline response 0 %, Hill slope -0.226, Maximum measured 109.554 %, Maximum response 100 %, Minimum measured 84.826 %, R squared 0.106) is over 16.7 µM.

Regarding `c1ccc(-c2csc(C3CCN(Cc4c[nH]c5ccccc45)CC3)n2)cc1`, the 90% effect concentration (EC90) is over 1.85 µM with Zika virus [1] (Baseline response 0 %, Hill slope -0.213, Maximum measured 87.861 %, Maximum response 100 %, Minimum measured 39.067 %, R squared 0.218); over 3.33 µM with Zika virus [1] (Zika virus, VeroE6/TMPRSS2, Baseline response 0 %, Hill slope -0.414, Maximum measured 90.11 %, Maximum response 100 %, Minimum measured 29.783 %, R squared 0.361); over 3.33 µM with dengue virus type 2 [4] (Dengue virus, VeroE6/TMPRSS2, Maximum measured 77.936 %, Minimum measured 57.835 %); over 1.85 µM with dengue virus type 2 [4] (Dengue virus, VeroE6/TMPRSS2, Baseline response 0 %, Hill slope -0.326, Maximum measured 104.724 %, Maximum response 100 %, Minimum measured 54.484 %, R squared 0.233). Further, the EC50 in the assay on Zika virus [1] (Zika virus, VeroE6/TMPRSS2) was 0.919 µM; in the assay on Zika virus [1] (veroe6/tmprss2) it was 1.09 µM; in the assay with dengue virus type 2 [4] (Dengue virus, VeroE6/TMPRSS2), over 3.33 µM; in the assay on dengue virus type 2 [4] (veroe6/tmprss2), over 1.85 µM.

With `CCOc1cccc(-c2ccc(S(=O)(=O)Nc3ccc(Cl)cc3C(=O)O)cc2)c1`, the 90% effect concentration (EC90) in the assay with Zika virus [1] (Baseline response 0 %, Hill slope -0.264, Maximum measured 100.253 %, Maximum response 100 %, Minimum measured 37.313 %, R squared 0.296) is over 16.7 µM; in the assay on Zika virus [1] (Zika virus, VeroE6/TMPRSS2, Baseline response 0 %, Hill slope -0.107, Maximum measured 149.039 %, Maximum response 100 %, Minimum measured 60.172 %, R squared 0.014) it was over 10 µM; in the assay on dengue virus type 2 [4] (Dengue virus, VeroE6/TMPRSS2, Maximum measured 86.49 %, Minimum measured 33.39 %), over 3.33 µM; with dengue virus type 2 [4] (Dengue virus, VeroE6/TMPRSS2, Maximum measured 135.635 %, Minimum measured 86.345 %), over 16.7 µM. The EC50 with Zika virus [1] (Zika virus, VeroE6/TMPRSS2) was over 10 µM; in the assay on Zika virus [1] (veroe6/tmprss2), 9.76 µM; with dengue virus type 2 [4] (veroe6/tmprss2) it was over 16.7 µM.

`NCc1cccc(NC(=O)c2cc(Cl)cc(N3CCCC3=O)c2)c1`: the EC90 was over 10 µM in the assay on Zika virus [1] (Baseline response 0 %, Hill slope 0.118, Maximum measured 129.177 %, Maximum response 100 %, Minimum measured 53.613 %, R squared 0.041); over 50 µM in the assay with Zika virus [1] (Baseline response 0 %, Hill slope -0.203, Maximum measured 140.608 %, Maximum response 100 %, Minimum measured 78.837 %, R squared 0.028); over 10 µM in the assay with dengue virus type 2 [4] (Dengue virus, VeroE6/TMPRSS2, Maximum measured 120.219 %, Minimum measured 55.49 %); over 50 µM with dengue virus type 2 [4] (Dengue virus, VeroE6/TMPRSS2, Baseline response 0 %, Hill slope 0.068, Maximum measured 98.172 %, Maximum response 100 %, Minimum measured 58.193 %, R squared 0.052). For the same molecule, the EC50 in the assay with Zika virus [1] (veroe6/tmprss2) and in the assay with dengue virus type 2 [4] (veroe6/tmprss2) was over 50 µM throughout.

As to `NCc1cccc(NC(=O)c2cc(Cl)cc(NC(=O)OCc3ccccc3)c2)c1`, the EC90 is over 3.33 µM in the assay with Zika virus [1] (Baseline response 0 %, Hill slope -0.215, Maximum measured 128.419 %, Maximum response 100 %, Minimum measured 50.213 %, R squared 0.105); over 16.7 µM in the assay with Zika virus [1] (Baseline response 0 %, Hill slope -0.764, Maximum measured 71.895 %, Maximum response 50 %, Minimum measured 1.714 %, R squared 0.465); over 5.56 µM in the assay on Zika virus [1] (Baseline response 0 %, Hill slope -1.05, Maximum measured 125.373 %, Maximum response 100 %, Minimum measured 37.992 %, R squared 0.488); over 10 µM in the assay on dengue virus type 2 [4] (Baseline response 0 %, Hill slope 0.299, Maximum measured 124.416 %, Maximum response 100 %, Minimum measured 54.583 %, R squared 0.188); over 1.85 µM with dengue virus type 2 [4] (Baseline response 0 %, Hill slope -0.071, Maximum measured 76.87 %, Maximum response 100 %, Minimum measured 49.245 %, R squared 0.036); over 5.56 µM in the assay with dengue virus type 2 [4] (Baseline response 0 %, Hill slope -0.258, Maximum measured 121.337 %, Maximum response 100 %, Minimum measured 68.392 %, R squared 0.156). Further, the concentration for a half-maximal effect (EC50) with Zika virus [1] (veroe6/tmprss2) is > 3.33 µM and 2.02 µM and 1.2 µM; with dengue virus type 2 [4] (veroe6/tmprss2), over 10 µM.

Take `NCc1cccc(NC(=O)[C@@H](NC(=O)OCc2ccccc2)c2ccc(Br)c(Cl)c2)c1`: the EC50 in the assay with Zika virus [1] (Zika virus, VeroE6/TMPRSS2) was 0.557 µM; with dengue virus type 2 [4] (Dengue virus, VeroE6/TMPRSS2), over 5.56 µM. The concentration for an effect of 90% (EC90) was over 5.56 µM with Zika virus [1] (Zika virus, VeroE6/TMPRSS2, Baseline response 0 %, Hill slope -0.711, Maximum measured 91.358 %, Maximum response 100 %, Minimum measured 2.864 %, R squared 0.54) and over 5.56 µM with dengue virus type 2 [4] (Dengue virus, VeroE6/TMPRSS2, Maximum measured 72.758 %, Minimum measured 24.513 %).

As to `NCc1cccc(NC(=O)c2cc(Cl)cc3c2CCC3)c1`, the EC50 in the assay with Zika virus [1] (Zika virus, VeroE6/TMPRSS2) was over 16.7 µM; in the assay on dengue virus type 2 [4] (Dengue virus, VeroE6/TMPRSS2), over 10 µM; in the assay on dengue virus type 2 [4] (veroe6/tmprss2) it was over 16.7 µM. The EC90 in the assay with Zika virus [1] (Zika virus, VeroE6/TMPRSS2, Maximum measured 83.197 %, Minimum measured 51.618 %) is over 16.7 µM; in the assay with dengue virus type 2 [4] (Dengue virus, VeroE6/TMPRSS2, Maximum measured 223.993 %, Minimum measured 74.273 %), over 16.7 µM; with dengue virus type 2 [4] (Dengue virus, VeroE6/TMPRSS2, Baseline response 0 %, Hill slope 0.162, Maximum measured 165.889 %, Maximum response 100 %, Minimum measured 52.995 %, R squared 0.068), over 10 µM.
